Experimental data: US12150935B1, “3-(3-(1,3-dioxoisoindolin-2-yl) propyl)-5-(4-fluorobenzylidene) thiazolidine-2,4-dione as a potential antitumor and apoptotic inducer” (IMAM MOHAMMAD IBN SAUD ISLAMIC UNIVERSITY, priority 2024, dated 2024)

How the values were obtained:
[1] = test system: pharynx squamous carcinoma (FaDu); assay: Growth inhibition of cancerous cells, FaDu; assay type: cell-based; settings: Homo sapiens, concentration of 100 μg/mL, in vitro, read-out: growth inhibition percentage
Experimental: (§1) The compound of Formula I was tested for its antitumor activity against various cancer cell lines, in vitro, in non-small cell lung cancer (A549), colorectal carcinoma (HCT116), prostate cancer (PC3), pharynx squamous carcinoma (FaDu), triple-negative breast cancer (MDA-MB-468), cervical cancer (HeLa), and human oral epithelial normal cell line (OEC).

[2] = test system: human non-small cell lung cancer (A549); assay: Growth inhibition of cancerous cells, A549; assay type: cell-based; settings: concentration of 100 μg/mL, in vitro, read-out: growth inhibition percentage
Experimental: as §1

[3] = test system: triple-negative breast cancer (MDA-MB-468); assay: Growth inhibition of cancerous cells, MDA-MB-468; assay type: cell-based; settings: Homo sapiens, concentration of 100 μg/mL, in vitro, read-out: growth inhibition percentage
Experimental: as §1

[4] = test system: prostate cancer (PC3); assay: Growth inhibition of cancerous cells, PC3; assay type: cell-based; settings: Homo sapiens, concentration of 100 μg/mL, in vitro, read-out: growth inhibition percentage
Experimental: as §1

[5] = test system: human oral epithelial normal cell line (OEC); assay: Growth inhibition of normal cells, OEC; assay type: cell-based; settings: 100 μg/mL, in vitro, read-out: growth inhibition percentage
Experimental: as §1

[6] = test system: cervical cancer (HeLa); assay: Growth inhibition of cancerous cells, HeLa; assay type: cell-based; settings: Homo sapiens, concentration of 100 μg/mL, in vitro, read-out: growth inhibition percentage
Experimental: as §1

[7] = test system: colorectal carcinoma (HCT116); assay: Growth inhibition of cancerous cells, HCT116; assay type: cell-based; settings: Homo sapiens, HCT-116, concentration of 100 μg/mL, in vitro, read-out: growth inhibition percentage
Experimental: as §1

Row | SMILES | inhibition at 100 µg/mL [1] [%] | inhibition at 100 µg/mL [2] [%] | inhibition at 100 µg/mL [3] [%] | inhibition at 100 µg/mL [4] [%] | inhibition at 100 µg/mL [5] [%] | inhibition at 100 µg/mL [6] [%] | inhibition at 100 µg/mL [7] [%] | melting point [°C]
1 | O=C1S/C(=C/c2ccc(F)cc2)C(=O)N1CCCN1C(=O)c2ccccc2C1=O [Formula I, 3-(3-(1,3-Dioxoisoindolin-2-yl)propyl)-5-(4-fluorobenzylidene) thiazolidine-2,4-dione] | 86.8 | 79.1 | 87.8 | 84.3 | 61.2 | 73.1 | 79.3 | 233 to 234
2 | COc1cccc2c1C(=O)c1c(O)c3c(c(O)c1C2=O)C[C@@](O)(C(=O)CO)C[C@@H]3O[C@H]1C[C@H](N)[C@H](O)[C@H](C)O1 [doxorubicin, reference compound] | – | – | – | – | 57.9 | – | – | –
